Experimental data taken from PMC5218480 (PLoS ONE, 2017).

Test system: MV-4-11 cells
Experiment: Gene expression microarray analysis (Affymetrix PrimeView) and GSEA
Assay type: cell-based, human
Parameters: RFU PODN (11730768_x_at) / Fold change /veh PODN (11730768_x_at) / RFU LINC00158 (11744669_a_at) / Fold change /veh LINC00158 (11744669_a_at) / RFU DUSP10 (11751237_a_at) / Fold change /veh DUSP10 (11751237_a_at) / RFU ID3 (11757404_x_at) / Fold change /veh ID3 (11757404_x_at) / RFU PLEKHG5 (11737974_s_at) / Fold change /veh PLEKHG5 (11737974_s_at) / RFU LRRC4B (11730491_at) / Fold change /veh LRRC4B (11730491_at) / RFU GIMAP4 (11747438_a_at) / Fold change /veh GIMAP4 (11747438_a_at) / RFU KRT8 (11758183_x_at) / Fold change /veh KRT8 (11758183_x_at) / RFU CNN1 (11734310_a_at) / Fold change /veh CNN1 (11734310_a_at) / RFU VPS37D (11726825_at) / Fold change /veh VPS37D (11726825_at) / RFU C10orf10 (11716522_x_at) / Fold change /veh C10orf10 (11716522_x_at) / RFU KIR2DL2 /// KIR2DL4 /// KIR2DL5A /// KIR2DL5B /// KIR2DS1 /// KIR2DS2 /// KIR2DS3 /// KIR2DS4 /// KIR3DL3 /// KIR3DL3 /// KIR3DS1 (11738374_at) / Fold change /veh KIR2DL2 /// KIR2DL4 /// KIR2DL5A /// KIR2DL5B /// KIR2DS1 /// KIR2DS2 /// KIR2DS3 /// KIR2DS4 /// KIR3DL3 /// KIR3DL3 /// KIR3DS1 (11738374_at) / RFU C1QL1 (11718748_at) / Fold change /veh C1QL1 (11718748_at) / RFU TMPRSS4 (11747572_a_at) / Fold change /veh TMPRSS4 (11747572_a_at) / RFU HAMP (11756126_x_at) / Fold change /veh HAMP (11756126_x_at) / RFU RNFT2 (11725882_a_at) / Fold change /veh RNFT2 (11725882_a_at) / RFU NR4A2 (11747474_a_at) / Fold change /veh NR4A2 (11747474_a_at) / RFU ABCC12 (11746883_a_at) / Fold change /veh ABCC12 (11746883_a_at) / RFU TMEM136 (11760407_x_at) / Fold change /veh TMEM136 (11760407_x_at) / RFU CLDN22 /// WWC2 (11732394_at) / Fold change /veh CLDN22 /// WWC2 (11732394_at) / RFU HLA-DPB1 (11760878_x_at) / Fold change /veh HLA-DPB1 (11760878_x_at) / RFU SPINT1 (11716480_a_at) / Fold change /veh SPINT1 (11716480_a_at) / RFU GAP43 (11754022_s_at) / Fold change /veh GAP43 (11754022_s_at) / RFU A4GNT (11735810_at) / Fold change /veh A4GNT (11735810_at) / RFU PRB3 (11715151_x_at) / Fold change /veh PRB3 (11715151_x_at) / RFU TUBB4B (11761932_at) / Fold change /veh TUBB4B (11761932_at) / RFU CAPN14 (11732068_a_at) / Fold change /veh CAPN14 (11732068_a_at) / RFU TMCC2 (11721928_a_at) / Fold change /veh TMCC2 (11721928_a_at) / RFU IRGQ (11745062_a_at) / Fold change /veh IRGQ (11745062_a_at) / RFU FAM174B (11720279_a_at) / Fold change /veh FAM174B (11720279_a_at) / RFU TMPRSS4 (11748680_a_at) / Fold change /veh TMPRSS4 (11748680_a_at) / RFU FAM212B (11763350_a_at) / Fold change /veh FAM212B (11763350_a_at) / RFU PLEKHG5 (11743358_a_at) / Fold change /veh PLEKHG5 (11743358_a_at) / RFU ZSCAN30 (11745921_a_at) / Fold change /veh ZSCAN30 (11745921_a_at) / RFU CMKLR1 (11741424_a_at) / Fold change /veh CMKLR1 (11741424_a_at) / RFU LOC101060620 /// MAPK8IP1 (11723275_at) / Fold change /veh LOC101060620 /// MAPK8IP1 (11723275_at) / RFU SPTSSB (11747773_x_at) / Fold change /veh SPTSSB (11747773_x_at) / RFU PRSS12 (11739890_at) / Fold change /veh PRSS12 (11739890_at) / RFU BIN1 (11741810_x_at) / Fold change /veh BIN1 (11741810_x_at) / RFU WNT11 (11732464_a_at) / Fold change /veh WNT11 (11732464_a_at) / RFU C10orf10 (11716521_a_at) / Fold change /veh C10orf10 (11716521_a_at) / RFU C5orf56 (11738089_at) / Fold change /veh C5orf56 (11738089_at) / RFU CYB561 (11721691_x_at) / Fold change /veh CYB561 (11721691_x_at) / RFU ANKRD19P (11752326_a_at) / Fold change /veh ANKRD19P (11752326_a_at) / RFU OR2T12 /// OR2T33 /// OR2T8 (11738714_s_at) / Fold change /veh OR2T12 /// OR2T33 /// OR2T8 (11738714_s_at) / RFU VCAN (11748164_a_at) / Fold change /veh VCAN (11748164_a_at) / RFU JSRP1 (11732532_at) / Fold change /veh JSRP1 (11732532_at) / RFU KRTAP10-11 (11738290_x_at) / Fold change /veh KRTAP10-11 (11738290_x_at) / RFU MYO3A (11730013_a_at) / Fold change /veh MYO3A (11730013_a_at) / RFU EBF3 (11725865_a_at) / Fold change /veh EBF3 (11725865_a_at) / RFU CAMK2N1 (11719241_x_at) / Fold change /veh CAMK2N1 (11719241_x_at) / RFU C5orf56 (11738088_a_at) / Fold change /veh C5orf56 (11738088_a_at) / RFU OLFML3 (11715873_a_at) / Fold change /veh OLFML3 (11715873_a_at) / RFU LOC100653217 /// NTM (11731650_a_at) / Fold change /veh LOC100653217 /// NTM (11731650_a_at) / RFU MAPK11 (11762145_a_at) / Fold change /veh MAPK11 (11762145_a_at) / RFU FIZ1 (11724087_x_at) / Fold change /veh FIZ1 (11724087_x_at) / RFU OASL (11726364_x_at) / Fold change /veh OASL (11726364_x_at) / RFU SOX15 (11748057_x_at) / Fold change /veh SOX15 (11748057_x_at) / RFU CD79A (11719716_a_at) / Fold change /veh CD79A (11719716_a_at) / RFU HIST1H1D (11736915_at) / Fold change /veh HIST1H1D (11736915_at) / RFU CASKIN2 (11723855_a_at) / Fold change /veh CASKIN2 (11723855_a_at) / RFU LOC730098 (11760151_x_at) / Fold change /veh LOC730098 (11760151_x_at) / RFU OR4N2 (11742367_at) / Fold change /veh OR4N2 (11742367_at) / RFU PRRT2 (11749266_a_at) / Fold change /veh PRRT2 (11749266_a_at) / RFU SNX32 (11753110_a_at) / Fold change /veh SNX32 (11753110_a_at) / RFU CDHR5 (11726645_a_at) / Fold change /veh CDHR5 (11726645_a_at) / RFU RCAN1 (11760418_a_at) / Fold change /veh RCAN1 (11760418_a_at) / RFU FAM167A (11723789_a_at) / Fold change /veh FAM167A (11723789_a_at) / RFU FAM26E (11764081_at) / Fold change /veh FAM26E (11764081_at) / RFU ISYNA1 (11749810_s_at) / Fold change /veh ISYNA1 (11749810_s_at) / RFU ACY1 (11761880_at) / Fold change /veh ACY1 (11761880_at) / RFU 11764098_at / Fold change /veh 11764098_at / RFU SAMD14 (11745864_x_at) / Fold change /veh SAMD14 (11745864_x_at) / RFU NPB (11741838_a_at) / Fold change /veh NPB (11741838_a_at) / RFU TMPRSS6 (11731388_a_at) / Fold change /veh TMPRSS6 (11731388_a_at) / RFU KRTAP10-2 (11738614_at) / Fold change /veh KRTAP10-2 (11738614_at) / RFU ARHGAP8 /// PRR5-ARHGAP8 (11727945_x_at) / Fold change /veh ARHGAP8 /// PRR5-ARHGAP8 (11727945_x_at) / RFU KRTAP5-7 /// NADSYN1 (11734609_at) / Fold change /veh KRTAP5-7 /// NADSYN1 (11734609_at) / RFU RASL12 (11751679_a_at) / Fold change /veh RASL12 (11751679_a_at) / RFU CDKN2B (11736163_a_at) / Fold change /veh CDKN2B (11736163_a_at) / RFU PRF1 (11729649_at) / Fold change /veh PRF1 (11729649_at) / RFU, ZNF638 /// ZNF638-IT1 / Fold change vs veh, ZNF638 /// ZNF638-IT1 / RFU, PANK3 / Fold change vs veh, PANK3 / RFU, SH3YL1 / Fold change vs veh, SH3YL1 / RFU, ZEB2 / Fold change vs veh, ZEB2 / RFU, NRIP1 / Fold change vs veh, NRIP1 / RFU, PTTG1IP / Fold change vs veh, PTTG1IP / RFU, CAPN2 / Fold change vs veh, CAPN2 / RFU, MED14 / Fold change vs veh, MED14 / RFU, SNORA58 / Fold change vs veh, SNORA58 / RFU, C1orf63 / Fold change vs veh, C1orf63 / RFU, LRRFIP1 / Fold change vs veh, LRRFIP1 / RFU, NDUFAF7 / Fold change vs veh, NDUFAF7 / RFU, SLC12A2 / Fold change vs veh, SLC12A2 / RFU, IBTK / Fold change vs veh, IBTK / RFU, ESF1 / Fold change vs veh, ESF1 / Fold change vs veh, TMEM50B / RFU, TAOK1 / Fold change vs veh, TAOK1 / RFU, ACBD3 / Fold change vs veh, ACBD3 / RFU, TMA16 / Fold change vs veh, TMA16 / RFU, RWDD3 / Fold change vs veh, RWDD3 / RFU, BCAT1 / Fold change vs veh, BCAT1 / RFU, EDEM3 / Fold change vs veh, EDEM3 / RFU, TMEM33 / Fold change vs veh, TMEM33 / RFU, WDR75 / Fold change vs veh, WDR75 / RFU, AHCTF1 / Fold change vs veh, AHCTF1 / RFU, TFRC / Fold change vs veh, TFRC / RFU, ZDHHC17 / Fold change vs veh, ZDHHC17 / RFU, NOM1 / Fold change vs veh, NOM1 / RFU, ARL8B / Fold change vs veh, ARL8B / RFU, ZBTB11 / Fold change vs veh, ZBTB11 / RFU, TAMM41 / Fold change vs veh, TAMM41 / RFU, KIAA1704 /// LOC100996395 / Fold change vs veh, KIAA1704 /// LOC100996395 / RFU, ING1 / Fold change vs veh, ING1 / RFU, TRMT61B / Fold change vs veh, TRMT61B / RFU, FUBP3 / Fold change vs veh, FUBP3 / RFU, TP53 / Fold change vs veh, TP53 / RFU, TNKS2 / Fold change vs veh, TNKS2 / RFU, ZFP14 / Fold change vs veh, ZFP14 / RFU, ACTR2 / Fold change vs veh, ACTR2 / RFU, PPP3R1 / Fold change vs veh, PPP3R1 / RFU, PIK3R1 / Fold change vs veh, PIK3R1 / RFU, HNRNPA1 / Fold change vs veh, HNRNPA1 / RFU, RNF170 / Fold change vs veh, RNF170 / RFU, ZNF28 / Fold change vs veh, ZNF28 / RFU, RNGTT / Fold change vs veh, RNGTT / RFU, OGT / Fold change vs veh, OGT / RFU, BRD1 / Fold change vs veh, BRD1 / RFU, MARS / Fold change vs veh, MARS / RFU, ZNF655 / Fold change vs veh, ZNF655 / RFU, FAHD1 / Fold change vs veh, FAHD1 / RFU, BDP1 / Fold change vs veh, BDP1 / RFU, LRRCC1 / Fold change vs veh, LRRCC1 / RFU, ARID1A / Fold change vs veh, ARID1A / RFU, ZNF146 / Fold change vs veh, ZNF146 / RFU, ZNF330 / Fold change vs veh, ZNF330 / RFU, GPN3 / Fold change vs veh, GPN3 / RFU, C9orf123 / Fold change vs veh, C9orf123 / RFU, N4BP2L2 / Fold change vs veh, N4BP2L2 / RFU, ARFIP1 / Fold change vs veh, ARFIP1 / RFU, FAM179B / Fold change vs veh, FAM179B / RFU, BCL10 / Fold change vs veh, BCL10 / RFU, UHRF1BP1L / Fold change vs veh, UHRF1BP1L / RFU, BET1 / Fold change vs veh, BET1 / RFU, CNOT2 / Fold change vs veh, CNOT2 / RFU, ZNF268 / Fold change vs veh, ZNF268 / Fold change vs veh, ZNF507 / RFU, DGCR2 / Fold change vs veh, DGCR2 / RFU, WDSUB1 / Fold change vs veh, WDSUB1 / Fold change vs veh, HSP90B1 /// MIR3652 / RFU, ADSS / Fold change vs veh, ADSS / RFU, GK / Fold change vs veh, GK / RFU, ZNF148 / Fold change vs veh, ZNF148 / RFU, TAF9 / Fold change vs veh, TAF9 / RFU, SLC1A5 / Fold change vs veh, SLC1A5 / RFU, SLMO2 / Fold change vs veh, SLMO2 / RFU, ABCC4 / Fold change vs veh, ABCC4 / RFU, LOC101060439 /// RAP1B / Fold change vs veh, LOC101060439 /// RAP1B / RFU, RFX7 / Fold change vs veh, RFX7 / RFU, GTPBP10 / Fold change vs veh, GTPBP10 / RFU, CNEP1R1 / Fold change vs veh, CNEP1R1 / RFU, BIVM-ERCC5 /// ERCC5 / Fold change vs veh, BIVM-ERCC5 /// ERCC5 / RFU, ILF3 / Fold change vs veh, ILF3 / RFU 11762660_at / Fold change /veh 11762660_at / RFU VCAN (11757783_s_at) / Fold change /veh VCAN (11757783_s_at) / RFU DDX43 (11728927_at) / Fold change /veh DDX43 (11728927_at) / RFU KRT8 (11758188_x_at) / Fold change /veh KRT8 (11758188_x_at) / RFU NKD1 (11759106_at) / Fold change /veh NKD1 (11759106_at) / RFU SRD5A1 (11742802_a_at) / Fold change /veh SRD5A1 (11742802_a_at) / RFU TPSAB1 /// TPSB2 (11721975_s_at) / Fold change /veh TPSAB1 /// TPSB2 (11721975_s_at) / RFU GSTM3 (11746129_a_at) / Fold change /veh GSTM3 (11746129_a_at) / RFU IL23R (11737362_x_at) / Fold change /veh IL23R (11737362_x_at) / RFU TMEM51 (11727254_a_at) / Fold change /veh TMEM51 (11727254_a_at) / RFU PIWIL2 (11732686_x_at) / Fold change /veh PIWIL2 (11732686_x_at) / RFU ORM1 (11744905_x_at) / Fold change /veh ORM1 (11744905_x_at) / RFU CCDC152 (11743942_at) / Fold change /veh CCDC152 (11743942_at) / RFU ECM1 (11717891_a_at) / Fold change /veh ECM1 (11717891_a_at) / RFU IL23R (11748794_a_at) / Fold change /veh IL23R (11748794_a_at) / RFU TNFAIP8L3 (11732012_x_at) / Fold change /veh TNFAIP8L3 (11732012_x_at) / RFU MBOAT4 (11741988_at) / Fold change /veh MBOAT4 (11741988_at) / RFU 11764193_at / Fold change /veh 11764193_at / RFU TMEM53 (11763286_at) / Fold change /veh TMEM53 (11763286_at) / RFU MAGEB2 (11727129_at) / Fold change /veh MAGEB2 (11727129_at) / RFU TMEM200A (11744735_a_at) / Fold change /veh TMEM200A (11744735_a_at) / RFU CCDC152 (11751479_a_at) / Fold change /veh CCDC152 (11751479_a_at) / RFU FAM211A (11726209_a_at) / Fold change /veh FAM211A (11726209_a_at) / RFU RGS16 (11746705_a_at) / Fold change /veh RGS16 (11746705_a_at) / RFU VCAN (11755009_s_at) / Fold change /veh VCAN (11755009_s_at) / RFU RHOB (11743442_s_at) / Fold change /veh RHOB (11743442_s_at) / RFU RGS16 (11720943_a_at) / Fold change /veh RGS16 (11720943_a_at) / RFU RGS16 (11720944_at) / Fold change /veh RGS16 (11720944_at) / RFU, VPS4B / Fold change vs veh, VPS4B / RFU, CREB1 / Fold change vs veh, CREB1 / RFU, DNAJC13 / Fold change vs veh, DNAJC13 / RFU, GNAQ / Fold change vs veh, GNAQ / RFU, CDK5R1 / Fold change vs veh, CDK5R1 / RFU, ZRANB3 / Fold change vs veh, ZRANB3 / RFU, CUL4A / Fold change vs veh, CUL4A / RFU, CCNY / Fold change vs veh, CCNY / RFU, UFL1 / Fold change vs veh, UFL1 / RFU, COG3 / Fold change vs veh, COG3 / RFU, DIAPH2 / Fold change vs veh, DIAPH2 / RFU, SKA2 / Fold change vs veh, SKA2 / RFU, AFF3 / Fold change vs veh, AFF3 / RFU, LMF1 / Fold change vs veh, LMF1 / RFU, IPO11 / Fold change vs veh, IPO11 / RFU, DFFB / Fold change vs veh, DFFB / RFU, FOXP1 / Fold change vs veh, FOXP1 / RFU, CARD8 / Fold change vs veh, CARD8 / RFU, STRN3 / Fold change vs veh, STRN3 / RFU, ADK / Fold change vs veh, ADK / RFU, RASSF2 / Fold change vs veh, RASSF2 / RFU, WIPF1 / Fold change vs veh, WIPF1 / RFU, LARP1B / Fold change vs veh, LARP1B / RFU, RASA1 / Fold change vs veh, RASA1 / RFU, RB1 / Fold change vs veh, RB1 / RFU, PPFIA1 / Fold change vs veh, PPFIA1 / RFU, MAT2A / Fold change vs veh, MAT2A / RFU, CCT5 / Fold change vs veh, CCT5 / RFU, WDR92 / Fold change vs veh, WDR92 / RFU, CUX1 / Fold change vs veh, CUX1 / RFU, TTC7A / Fold change vs veh, TTC7A / RFU, TMEM135 / Fold change vs veh, TMEM135 / RFU, DEPTOR / Fold change vs veh, DEPTOR / RFU, CPM / Fold change vs veh, CPM / RFU, DNAJB6 / Fold change vs veh, DNAJB6 / RFU, CACNA2D3 / Fold change vs veh, CACNA2D3 / RFU, DTX4 / Fold change vs veh, DTX4 / RFU, TFCP2 / Fold change vs veh, TFCP2 / RFU, GMCL1 /// GMCL1P1 / Fold change vs veh, GMCL1 /// GMCL1P1 / RFU, AEBP2 / Fold change vs veh, AEBP2 / RFU, SNHG1 /// SNORD22 /// SNORD25 /// SNORD26 /// SNORD27 /// SNORD28 /// SNORD29 /// SNORD31 / Fold change vs veh, SNHG1 /// SNORD22 /// SNORD25 /// SNORD26 /// SNORD27 /// SNORD28 /// SNORD29 /// SNORD31 / Fold change (Aza/veh), C12orf56 (ProbeSet 11735607_a_at) / Fold change (ACY-1035/veh), C12orf56 (ProbeSet 11735607_a_at) / Fold change (Aza/veh), FGFR1OP (ProbeSet 11751329_s_at) / Fold change (ACY-1035/veh), FGFR1OP (ProbeSet 11751329_s_at) / Fold change (Aza/veh), VPS36 (ProbeSet 11739960_a_at) / Fold change (ACY-1035/veh), VPS36 (ProbeSet 11739960_a_at) / RFU SYPL1 (11715823_x_at) / Fold change /veh SYPL1 (11715823_x_at) / RFU IGFBP7 (11715501_s_at) / Fold change /veh IGFBP7 (11715501_s_at) / RFU REEP3 (11722064_at) / Fold change /veh REEP3 (11722064_at) / RFU IGLL1 (11728026_x_at) / Fold change /veh IGLL1 (11728026_x_at): dose or concentration left out as unconfirmed
Conditions: ProbeSet 11732433_s_at; LIST B

Nc1ccc(-c2cccs2)cc1NC(=O)c1ccc2c(c1)cc(C1CC1)n2CCN1CCOCC1 [ACY-1035]
Fold change vs veh, GK: 1.08
